One assay deals with human CNR2 receptors (CB2 receptor) (Homo sapiens (Human), UniProt P34972). Put plainly: Radioligand binding assay, human CB2 (CNR2).
human CNR2 receptors (CB2 receptor), sequence (P34972 whole entry): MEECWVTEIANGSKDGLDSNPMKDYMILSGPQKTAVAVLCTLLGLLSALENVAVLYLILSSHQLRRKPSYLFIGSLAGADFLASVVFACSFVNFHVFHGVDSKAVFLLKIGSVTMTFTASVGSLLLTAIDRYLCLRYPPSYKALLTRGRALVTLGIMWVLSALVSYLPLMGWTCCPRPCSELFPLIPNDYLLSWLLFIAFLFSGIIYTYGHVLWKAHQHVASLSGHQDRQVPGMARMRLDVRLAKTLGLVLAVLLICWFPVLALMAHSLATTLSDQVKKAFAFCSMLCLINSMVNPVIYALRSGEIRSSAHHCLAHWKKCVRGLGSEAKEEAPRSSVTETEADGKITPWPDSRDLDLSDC
Settings: not given
The procedure: Radioligand Binding Assay
The affinity of the compounds of the invention for cannabinoid CB1 receptors was determined using recommended amounts of membrane preparations (PerkinElmer) of human embryonic kidney (HEK) cells expressing the human CNR1 or CNR2 receptors in conjunction with 1.5 or 2.6 nM [3H]-CP-55,940 (Perkin Elmer) as radioligand, respectively. Binding was performed in binding buffer (50 mM Tris, 5 mM MgCl2, 2.5 mM EDTA, and 0.5% (wt/vol) fatty acid free BSA, pH 7.4 for CB1 receptor and 50 mM Tris, 5 mM MgCl2, 2.5 mM EGTA, and 0.1% (wt/vol) fatty acid free BSA, pH 7.4 for CB2 receptor) in a total volume of 0.2 ml for 1 h at 30° C. shaking. The reaction was terminated by rapid filtration through microfiltration plates coated with 0.5% polyethylenimine (UniFilter GFB filter plate; Packard). Bound radioactivity was analyzed for Ki using nonlinear regression analysis (Activity Base, ID Business Solution, Limited), with the Kd values for [3H]CP55,940 determined from saturation experiments. The compounds of formula (I) show an excellent affinity for the CB2 receptor.
The compounds according to formula (I) have an activity in the above assay (Ki) between 0.5 nM and 10 μM. Particular compounds of formula (I) have an activity in the above assay (Ki) between 0.5 nM and 3 μM. Other particular compounds of formula (I) have an activity in the above assay (Ki) between 0.5 nM and 100 nM.
`CCC(CC)(NC(=O)c1ccc(N2CC(O)C2)c(OC[C@H]2C[C@@H]2COCc2ccccc2)n1)C(=O)OCCCF` (racemic) [Example 22, (Rac)-trans-3-Fluoropropyl 2-[[6-[[-2-(benzyloxymethyl)cyclopropyl]methoxy]-5-(3-hydroxyazetidin-1-yl)pyridine-2-carbonyl]amino]-2-ethyl-butanoate] returned an inhibition constant Ki of 755 nM.

`CCC(CC)(NC(=O)c1ccc(N2CC(OS(=O)(=O)c3ccc(C)cc3)C2)c(OC[C@H]2C[C@@H]2CO)n1)C(=O)OCCCF` (racemic) [Example 31, (Rac)-trans-3-fluoropropyl 2-ethyl-2-[[6-[[-2-(hydroxymethyl)cyclopropyl]methoxy]-5-[3-(p-tolylsulfonyloxy)azetidin-1-yl]pyridine-2-carbonyl]amino]butanoate] showed a Ki of 11.7 nM.

In the case of `CCC(CC)(NC(=O)c1ccc(N2CC(OC)C2)c(OC[C@H]2C[C@@H]2CO)n1)C(=O)OCF` (stereo in doubt) [Example 12, (+)-trans-Fluoromethyl 2-ethyl-2-{[6-{[-2-(hydroxymethyl)cyclopropyl]methoxy}-5-(3-methoxyazetidin-1-yl)pyridine-2-carbonyl]amino}butanoate], the inhibition constant (Ki) is 0.4 nM.

The assay is the same for the next values; noted with them: membranes of HEK cells expressing human CNR2, 2.6 nM [3H]-CP-55,940 radioligand; read-out: Binding assay human CB2 Ki.
`CCOC(=O)C(CC)(CC)NC(=O)c1ccc(N2CC(OC)C2)c(OC[C@H]2C[C@@H]2CF)n1` (mixture of isomers) [Example 3, Ethyl 2-ethyl-2-{[6-{[(1S,2S)-2-(fluoromethyl)cyclopropyl]methoxy}-5-(3-methoxyazetidin-1-yl)pyridine-2-carbonyl]amino}butanoate and ethyl 2-ethyl-2-{[6-{[(1R,R)-2-(fluoromethyl)cyclopropyl]methoxy}-5-(3-methoxyazetidin-1-yl)pyridine-2-carbonyl]amino}butanoate]: the Ki was found to be 0.5 nM.

Turning to `CCOC(=O)C(CC)(CC)NC(=O)c1ccc(N2CC(OC)C2)c(OC[C@@H]2C[C@@H]2CF)n1` (mixture of isomers) [Example 4, Ethyl 2-ethyl-2-{[6-{[(1R,2S)-2-(fluoromethyl)cyclopropyl]methoxy}-5-(3-methoxyazetidin-1-yl)pyridine-2-carbonyl]amino}butanoate and ethyl 2-ethyl-2-{[6-{[(1S,2R)-2-(fluoromethyl)cyclopropyl]methoxy}-5-(3-methoxyazetidin-1-yl)pyridine-2-carbonyl]amino}butanoate], the Ki amounted to 0.7 nM.

For `CCOC(=O)C(CC)(CC)NC(=O)c1ccc(N2CC(OC)C2)c(OC[C@@H]2C[C@@H]2COCF)n1` (mixture of isomers) [Example 5, Ethyl 2-ethyl-2-{[6-({(1R,2S)-2-[(fluoromethoxy)methyl]cyclopropyl}methoxy)-5-(3-methoxyazetidin-1-yl)pyridine-2-carbonyl]amino}butanoate and ethyl 2-ethyl-2-{[6-({(1S,2R)-2-[(fluoromethoxy)methyl]cyclopropyl}methoxy)-5-(3-methoxyazetidin-1-yl)pyridine-2-carbonyl]amino}butanoate], the Ki worked out at 4.6 nM.

As to `CCOC(=O)C(CC)(CC)NC(=O)c1ccc(N2CC(OC)C2)c(OC[C@@H]2C[C@@H]2COCCF)n1` (mixture of isomers) [Example 6, Ethyl 2-ethyl-2-{[6-({(1R,2S)-2-[(2-fluoroethoxy)methyl]cyclopropyl}methoxy)-5-(3-methoxyazetidin-1-yl)pyridine-2-carbonyl]amino}butanoate and ethyl 2-ethyl-2-{[6-({(1S,2R)-2-[(2-fluoroethoxy)methyl]cyclopropyl}methoxy)-5-(3-methoxyazetidin-1-yl)pyridine-2-carbonyl]amino}butanoate], the Ki worked out at 13 nM.

Consider `CCC(CC)(NC(=O)c1ccc(N2CC(F)C2)c(OC[C@@H]2C[C@H]2CO)n1)C(=O)N[C@H](CO)CC(C)C` (single isomer, unassigned) [Example 27, N-[1-Ethyl-1-[[(1S)-1-(hydroxymethyl)-3-methyl-butyl]carbamoyl]propyl]-5-(3-fluoroazetidin-1-yl)-6-[[(1R,2R)-2-(hydroxymethyl)cyclopropyl]methoxy]pyridine-2-carboxamide or N-[1-ethyl-1-[[(1S)-1-(hydroxymethyl)-3-methyl-butyl]carbamoyl]propyl]-5-(3-fluoroazetidin-1-yl)-6-[[(1S,2S)-2-(hydroxymethyl)cyclopropyl]methoxy]pyridine-2-carboxamide], for which the Ki worked out at 4150 nM.

`CCC(CC)(NC(=O)c1ccc(N2CC(F)C2)c(OC[C@H]2C[C@@H]2CO)n1)C(=O)N[C@H](CO)CC(C)C` (single isomer, unassigned) [Example 28, N-[1-Ethyl-1-[[(1S)-1-(hydroxymethyl)-3-methyl-butyl]carbamoyl]propyl]-5-(3-fluoroazetidin-1-yl)-6-[[(1S,2S)-2-(hydroxymethyl)cyclopropyl]methoxy]pyridine-2-carboxamide or N-[1-ethyl-1-[[(1S)-1-(hydroxymethyl)-3-methyl-butyl]carbamoyl]propyl]-5-(3-fluoroazetidin-1-yl)-6-[[(1R,2R)-2-(hydroxymethyl)cyclopropyl]methoxy]pyridine-2-carboxamide]: the Ki turned out to be 3940 nM.

Take `CCC(CC)(NC(=O)c1ccc(N2CC(F)C2)c(OC[C@@H]2C[C@H]2CO)n1)C(=O)OCCCF` (single isomer, unassigned) [Example 29, 3-Fluoropropyl 2-ethyl-2-{[5-(3-fluoroazetidin-1-yl)-6-{[(1R,2R)-2-(hydroxymethyl)cyclopropyl]methoxy}pyridin-2-yl]formamido}butanoate or 3-fluoropropyl 2-ethyl-2-{[5-(3-fluoroazetidin-1-yl)-6-{[(1S,2S)-2-(hydroxymethyl)cyclopropyl]methoxy}pyridin-2-yl]formamido}butanoate]: the Ki amounted to 10.9 nM.

For `CCC(CC)(NC(=O)c1ccc(N2CC(F)C2)c(OC[C@H]2C[C@@H]2CO)n1)C(=O)OCCCF` (single isomer, unassigned) [Example 30, 3-Fluoropropyl 2-ethyl-2-{[5-(3-fluoroazetidin-1-yl)-6-{[(1S,2S)-2-(hydroxymethyl)cyclopropyl]methoxy}pyridin-2-yl]formamido}butanoate or 3-fluoropropyl 2-ethyl-2-{[5-(3-fluoroazetidin-1-yl)-6-{[(1R,2R)-2-(hydroxymethyl)cyclopropyl]methoxy}pyridin-2-yl]formamido}butanoate], the inhibition constant (Ki) came out at 1.7 nM.

`CCOC(=O)C(CC)(CC)NC(=O)c1ccc(N2CC(OC)C2)c(OC[C@H]2C[C@@H]2COCF)n1` (stereo in doubt) [Example 9, (+)-trans-Ethyl 2-ethyl-2-{[6-({-2-[(fluoromethoxy)methyl]cyclopropyl}methoxy)-5-(3-methoxyazetidin-1-yl)pyridine-2-carbonyl]amino}butanoate]: the Ki is 0.2 nM.

With `CCC(CC)(NC(=O)c1ccc(N2CC(OC)C2)c(OC[C@H]2C[C@@H]2CO)n1)C(=O)OCCF` (stereo in doubt) [Example 13, (+)-trans-2-Fluoroethyl 2-ethyl-2-{[6-{[-2-(hydroxymethyl)cyclopropyl]methoxy}-5-(3-methoxyazetidin-1-yl)pyridine-2-carbonyl]amino}butanoate], the Ki worked out at 0.3 nM.

Turning to `CCOC(=O)C(CC)(CC)NC(=O)c1cc(F)c(N2CC(OC)C2)c(OCC2CC2)n1` [Example 7, Ethyl 2-{[6-(cyclopropylmethoxy)-4-fluoro-5-(3-methoxyazetidin-1-yl)pyridine-2-carbonyl]amino}-2-ethylbutanoate], the Ki is 2.5 nM.

Turning to `CCOC(=O)C(CC)(CC)NC(=O)c1ccc(N2CC(OC)C2)c(OCC(C)(C)COCF)n1` [Example 8, Ethyl 2-ethyl-2-({6-[3-(fluoromethoxy)-2,2-dimethylpropoxy]-5-(3-methoxyazetidin-1-yl)pyridine-2-carbonyl}amino)butanoate], the Ki is 143 nM.

Regarding `CCOC(=O)C(CC)(CC)NC(=O)c1ccc(N2CC(OC)C2)c(OC[C@@H]2C[C@H]2COCF)n1` [Example 10, (−)-trans-Ethyl 2-ethyl-2-{[6-({-2-[(fluoromethoxy)methyl]cyclopropyl}methoxy)-5-(3-methoxyazetidin-1-yl)pyridine-2-carbonyl]amino}butanoate], the Ki worked out at 8.2 nM.

For `CCC(CC)(NC(=O)c1ccc(N2CC(OC)C2)c(OC[C@@H]2C[C@H]2CO)n1)C(=O)OCF` [Example 11, (−)-trans-Fluoromethyl 2-ethyl-2-{[6-{[(1R,2R)-2-(hydroxymethyl)cyclopropyl]methoxy}-5-(3-methoxyazetidin-1-yl)pyridine-2-carbonyl]amino}butanoate], the Ki was found to be 9.7 nM.

`CCC(CC)(NC(=O)c1ccc(N2CC(OC)C2)c(OC[C@@H]2C[C@H]2CO)n1)C(=O)OCCF` [Example 14, (−)-trans-2-Fluoroethyl 2-ethyl-2-{[6-{[-2-(hydroxymethyl)cyclopropyl]methoxy}-5-(3-methoxyazetidin-1-yl)pyridine-2-carbonyl]amino}butanoate]: the Ki was determined as 11.4 nM.

As for `CCC(CC)(NC(=O)c1ccc(N2CC(OC)C2)c(OC[C@H]2C[C@@H]2CO)n1)C(=O)OCCCF` [Example 15, 3-Fluoropropyl 2-ethyl-2-{[6-{[(1S,2S)-2-(hydroxymethyl)cyclopropyl]methoxy}-5-(3-methoxyazetidin-1-yl)pyridine-2-carbonyl]amino}butanoate], the Ki came out at 0.7 nM.

As usually defined, the Ki is the dissociation constant of the complex between target and ligand, obtained from inhibition or displacement.

Values taken from patent US11655243B2, “Pyridine and pyrazine derivatives as preferential cannabinoid 2 agonists” (HOFFMANN-LA ROCHE INC., priority 2018, dated 2023).
